Here are results for 18 compounds from patent US20260258032A1, “TYROSINE KINASE 2 INHIBITORS AND USES THEREOF” (BIOGEN MA INC., priority 2022, published 2026).

The term IC50 denotes the concentration that gives 50% inhibition. Lower therefore signals greater potency.

Structures can show the parent of a compound that is named as a salt. Where only a bound is given, the exact number is not on record here.

In experiment [1] the target is T1, JH2 domain of human Tyk2 (Homo sapiens, UniProt P29597).
T1 construct: 10×His-tagged TYK2 JH2 domain (amino acid 575-876)
T1 sequence (P29597 575-876): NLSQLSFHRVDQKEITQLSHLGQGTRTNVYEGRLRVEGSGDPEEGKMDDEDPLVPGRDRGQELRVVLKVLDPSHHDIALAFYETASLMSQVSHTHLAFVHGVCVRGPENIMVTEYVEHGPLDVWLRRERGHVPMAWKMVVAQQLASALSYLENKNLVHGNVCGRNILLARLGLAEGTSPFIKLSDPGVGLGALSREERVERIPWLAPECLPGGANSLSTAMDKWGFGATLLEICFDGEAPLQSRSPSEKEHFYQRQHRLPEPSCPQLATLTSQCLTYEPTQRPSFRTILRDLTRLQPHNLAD
Nature of the experiment: JH2 biochemical assay (TR-FRET probe displacement). The format is binding. The procedure, abridged: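 10×His-tagged human TYK2 JH2 (aa 575-876, 2 nM) incubated 60 min with 2 nM fluorescent probe, 0.1 nM Tb anti-His antibody and compound (10-point 3-fold series from […] top). TR-FRET 520/495 nm ratio, falling with probe displacement, normalized and fitted to a 4-parameter logistic for IC50.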
A general note: TR-FRET usually uses a lanthanide donor and a delayed reading to cut background.

Experiment [2] relates to Tyk2 kinase activity on STAT4. Nature of the experiment: pSTAT4 cell assay (MSD, NK92 cells). The format is cell-based. The following applies: compounds 1 hr. The procedure, abridged:
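IC50 values derive from 4-parameter logistic fits of normalized percent activity against log compound concentration. Phospho-STAT was measured by MSD with anti-STAT4 antibodies after 15 min of 30 ng/mL IL2 in serum-starved NK92 cells pretreated 1 hr with compound.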

[3] abbreviates: TR-FRET probe displacement, JH2 domain of human Tyk2.

For the compound `CC(=O)Nc1cc2c(cn1)C1(CC1)CN2c1cc(N[C@H]2C[C@@H](F)C2)nc(C(C)(F)F)n1` [Example 168, N-(1′-(2-(1,1-difluoroethyl)-6-(((1s,3s)-3-fluorocyclobutyl)amino)pyrimidin-4-yl)-1′,2′-dihydrospiro[cyclopropane-1,3′-pyrrolo[3,2-c]pyridin]-6′-yl)acetamide trifluoroacetate], the IC50 in experiment [1] (JH2 biochemical assay) was 10 to 100 nM; in experiment [2] (stimulated 15 minutes), 100 to 1000 nM.

Turning to `CC(=O)Nc1cc2c(cn1)C1(CC1)CN2c1cc(C)cc(-c2cnn(C(F)F)c2)n1` [Example 259, N-(1′-(6-(1-(difluoromethyl)-1H-pyrazol-4-yl)-4-methylpyridin-2-yl)-1′,2′-dihydrospiro[cyclopropane-1,3′-pyrrolo[3,2-c]pyridin]-6′-yl)acetamide trifluoroacetate], the IC50 in experiment [1] (JH2 biochemical assay) was not above 10 nM; in experiment [2] (stimulated 15 minutes), 100 to 1000 nM.

For `CC(=O)Nc1cc2c(cn1)C1(CC1)CN2c1cc(C)cc(N2CCC(C)(C#N)C2)n1` (stereo not drawn) [Example 404, N-(1′-(6-(3-cyano-3-methylpyrrolidin-1-yl)-4-methylpyridin-2-yl)-1′,2′-dihydrospiro[cyclopropane-1,3′-pyrrolo[3,2-c]pyridin]-6′-yl)acetamide], the half-maximal inhibitory concentration (IC50) in experiment [1] (setting [3]) is 10 to 100 nM; in experiment [2] (then stimulated 15 minutes), not below 1000 nM.

For `CC(=O)Nc1cc2c(cn1)C1(CC1)CN2c1cc(C)cc(N2CC(C#N)C2)n1` [Example 194, N-(1′-(6-(3-cyanoazetidin-1-yl)-4-methylpyridin-2-yl)-1′,2′-dihydrospiro[cyclopropane-1,3′-pyrrolo[3,2-c]pyridin]-6′-yl)acetamide], the values for the 50% inhibitory concentration (IC50) in experiment [1] (JH2 biochemical assay) and in experiment [2] (stimulated 15 minutes) were not above 10 nM and not below 1000 nM, respectively.

On to `CC(=O)Nc1cc2c(cn1)C1(CC1)CN2c1cc(NC2CC23CC3)nc(C(C)(F)F)n1` (stereo not drawn) [Example 176, N-(1′-(2-(1,1-difluoroethyl)-6-(spiro[2.2]pentan-1-ylamino)pyrimidin-4-yl)-1′,2′-dihydrospiro[cyclopropane-1,3′-pyrrolo[3,2-c]pyridin]-6′-yl)acetamide trifluoroacetate], for which the values for the half-maximal inhibitory concentration (IC50) in experiment [1] (JH2 biochemical assay) and in experiment [2] (stimulated 15 minutes) were not above 10 nM and 10 to 100 nM, respectively.

As to `CC(=O)Nc1cc2c(cn1)C1(CC1)CN2c1cc(Cl)nc(C(C)(C)F)n1` [Example 283, N-(1′-(6-chloro-2-(2-fluoropropan-2-yl)pyrimidin-4-yl)-1′,2′-dihydrospiro[cyclopropane-1,3′-pyrrolo[3,2-c]pyridin]-6′-yl)acetamide], the figures for the IC50 in experiment [1] (JH2 biochemical assay) and in experiment [2] (stimulated 15 minutes) were not above 10 nM and 100 to 1000 nM, respectively.

Turning to `CC(=O)Nc1cc2c(cn1)C1(CC1)CN2c1cc(N)nc(C(C)(F)F)n1` [Example 273, N-(1′-(6-amino-2-(1,1-difluoroethyl)pyrimidin-4-yl)-1′,2′-dihydrospiro[cyclopropane-1,3′-pyrrolo[3,2-c]pyridin]-6′-yl)acetamide trifluoroacetate], the figures for the half-inhibitory concentration (IC50) in experiment [1] (JH2 biochemical assay) and in experiment [2] (stimulated 15 minutes) were not above 10 nM and 10 to 100 nM, respectively.

Regarding `CC(=O)Nc1cc2c(cn1)C1(CC1)CN2c1cc(Oc2ccn(C)n2)nc(C(C)(F)F)n1` [Example 143, N-(1′-(2-(1,1-difluoroethyl)-6-((1-methyl-1H-pyrazol-3-yl)oxy)pyrimidin-4-yl)-1′,2′-dihydrospiro[cyclopropane-1,3′-pyrrolo[3,2-c]pyridin]-6′-yl)acetamide trifluoroacetate], the IC50 in experiment [1] (JH2 biochemical assay) was not above 10 nM; in experiment [2] (stimulated 15 minutes), 100 to 1000 nM.

Consider `CC(=O)Nc1cc2c(cn1)C1(CC1)CN2c1cc(C)nc(C2CCOC2)n1` (stereo not drawn) [Example 103, N-(1′-(6-methyl-2-(tetrahydrofuran-3-yl)pyrimidin-4-yl)-1′,2′-dihydrospiro[cyclopropane-1,3′-pyrrolo[3,2-c]pyridin]-6′-yl)acetamide], for which the figures for the IC50 in experiment [1] (JH2 biochemical assay) and in experiment [2] (stimulated 15 minutes) were not above 10 nM and 100 to 1000 nM, respectively.

`CC(=O)Nc1cc2c(cn1)C1(CC1)CN2c1cc(C)cc(N2CC(O)C2)n1` [Example 193, N-(1′-(6-(3-hydroxyazetidin-1-yl)-4-methylpyridin-2-yl)-1′,2′-dihydrospiro[cyclopropane-1,3′-pyrrolo[3,2-c]pyridin]-6′-yl)acetamide]: the IC50 in experiment [1] (JH2 biochemical assay) is 10 to 100 nM; in experiment [2] (stimulated 15 minutes), not below 1000 nM.

Consider `CC(=O)Nc1cc2c(cn1)C1(CC1)CN2c1cc(NC(C)C2COC2)nc(C(C)(F)F)n1` (stereo not drawn) [Example 175, N-(1′-(2-(1,1-difluoroethyl)-6-((1-(oxetan-3-yl)ethyl)amino)pyrimidin-4-yl)-1′,2′-dihydrospiro[cyclopropane-1,3′-pyrrolo[3,2-c]pyridin]-6′-yl)acetamide], for which the IC50 in experiment [1] (JH2 biochemical assay) was not above 10 nM; in experiment [2] (stimulated 15 minutes), 100 to 1000 nM.

In the case of `CCCNc1cc(N2CC3(CC3)c3cnc(NC(C)=O)cc32)nc(C(C)(F)F)n1` [Example 156, N-(1′-(2-(1,1-difluoroethyl)-6-(propylamino)pyrimidin-4-yl)-1′,2′-dihydrospiro[cyclopropane-1,3′-pyrrolo[3,2-c]pyridin]-6′-yl)acetamide trifluoroacetate], the half-inhibitory concentration (IC50) in experiment [1] (JH2 biochemical assay) and in experiment [2] (stimulated 15 minutes) was not above 10 nM in each case.

Take `CC(=O)Nc1cc2c(cn1)C1(CC1)CN2c1cc(NC2CC2C)nc(C(C)(F)F)n1` (stereo not drawn) [Example 182, N-(1′-(2-(1,1-difluoroethyl)-6-((2-methylcyclopropyl)amino)pyrimidin-4-yl)-1′,2′-dihydrospiro[cyclopropane-1,3′-pyrrolo[3,2-c]pyridin]-6′-yl)acetamide trifluoroacetate]: the IC50 in experiment [1] (JH2 biochemical assay) is not above 10 nM; in experiment [2] (stimulated 15 minutes) it was 10 to 100 nM.

Take `CC(=O)Nc1cc2c(cn1)C1(CC1)CN2c1cc(C(C)(C)F)nc(C(C)(F)F)n1` [Example 398, N-(1′-(2-(1,1-difluoroethyl)-6-(2-fluoropropan-2-yl)pyrimidin-4-yl)-1′,2′-dihydrospiro[cyclopropane-1,3′-pyrrolo[3,2-c]pyridin]-6′-yl)acetamide]: the IC50 in experiment [1] (setting [3]) was not above 10 nM; in experiment [2] (then stimulated 15 minutes), 10 to 100 nM.

In the case of `CC(=O)Nc1cc2c(cn1)C1(CC1)CN2c1cc(C)cc(OC2CCC(F)C2)n1` (stereo not drawn) [Example 353, N-(1′-(6-((3-fluorocyclopentyl)oxy)-4-methylpyridin-2-yl)-1′,2′-dihydrospiro[cyclopropane-1,3′-pyrrolo[3,2-c]pyridin]-6′-yl)acetamide trifluoroacetate], the IC50 in experiment [1] (JH2 biochemical assay) was 100 to 1000 nM; in experiment [2] (stimulated 15 minutes) it was not below 1000 nM.

Turning to `CC(=O)Nc1cc2c(cn1)C1(CC1)CN2c1cc(C)nc(F)n1` [Example 332, N-(1′-(2-fluoro-6-methylpyrimidin-4-yl)-1′,2′-dihydrospiro[cyclopropane-1,3′-pyrrolo[3,2-c]pyridin]-6′-yl)acetamide trifluoroacetate], the results for the IC50 in experiment [1] (JH2 biochemical assay) and in experiment [2] (stimulated 15 minutes) were 100 to 1000 nM and not below 1000 nM, respectively.

On to `CCOCCc1cc(N2CC3(CC3)c3cnc(NC(C)=O)cc32)nc(C(C)(F)F)n1` [Example 330, N-(1′-(2-(1,1-difluoroethyl)-6-(2-ethoxyethyl)pyrimidin-4-yl)-1′,2′-dihydrospiro[cyclopropane-1,3′-pyrrolo[3,2-c]pyridin]-6′-yl)acetamide trifluoroacetate], for which the IC50 in experiment [1] (JH2 biochemical assay) is not above 10 nM; in experiment [2] (stimulated 15 minutes), 10 to 100 nM.

`CC(=O)Nc1cc2c(cn1)C1(CC1)CN2c1cc(C)cc(N2CC[C@@H](C#N)C2)n1` [Example 403, (R)-N-(1′-(6-(3-cyanopyrrolidin-1-yl)-4-methylpyridin-2-yl)-1′,2′-dihydrospiro[cyclopropane-1,3′-pyrrolo[3,2-c]pyridin]-6′-yl)acetamide]: the half-maximal inhibitory concentration (IC50) in experiment [1] (setting [3]) was not above 10 nM; in experiment [2] (then stimulated 15 minutes) it was 100 to 1000 nM.
